Values joined by “and” are separate entries in the source; they are usually repeats but may differ in a detail not shown here. Equal entries are not always repeated. Non-standard residues stand in square brackets, D forms with d. pGlu = O=C1CC[C@@H](C(=O)O)N1
Tested on: peripheral blood mononuclear cells obtained from children
Test: IFNγ ELISpot PBMC assay after oral wheat bread challenge (Examples 1-2)
Format: cell-based, human
Method: An oral wheat bread challenge was conducted in DQ2.5+ children and adolescents having Celiac disease. The age ranges were 3-5, 6-10 and 11-18 years of age. An ELISpot peripheral blood mononucleated cell (PBMC) assay was performed to measure the level of IFNγ released by the PBMCs after being contacted with peptide 1, peptide 2, peptide 3, or a combination thereof. The identities of peptides 1, 2, and 3 are shown below.
The values the rows starting from “Blank (SFU)” and ending at “Pept-1/2/3 (150)” are all spot forming unit (SFU) values. The values in the parentheses in the first column are the concentration of each peptide in micrograms that were added to the PBMCs (e.g., Pept-1 50=50 micrograms of Peptide 1, Pept-1/2/3 50=50 micrograms of each of Peptide 1, Peptide 2, and Peptide 3). Pept-1=Peptide 1, Pept-2=Peptide 2, Pept-3=Peptide 3, the amino acid identities of which are mentioned above. D-Gli=deamidated gliadin. WT-Gli=wild-type gliadin. D-Glut=deamidated gluten. WT-Glut=wild-type gluten.
IFNγ ELISpot responses in 9 older children (11-17 yo) and 6 younger children (3-10 yo) were stimulated by the mixture of peptides 1, 2, and 3 described in Example 1 (each peptide at a concentration of 25 ug/mL) or stimulated by deamidated gliadin (100 ug/mL) after 3-day wheat challenge (r2=0.8, p<0.0001). The ELISpot responses were similar using either the peptide mixture of the deamidated gliadin (FIG. 1).

“ELQPFPQPELPYPQPQ ([pGlu]LQPFPQPELPYPQPQ-NH2) [Peptide 1]” was tested, and the “most active peptides in gliadin for children” value was “most active”, the “SFU, IFNγ ELISpot” value (Subject B, 5.0 × 10^5 cells per well, 25 micrograms, listed as Pept-1) was 4 SFU and 3 SFU and the “SFU, IFNγ ELISpot” value (Subject B, 5.0 × 10^5 cells per well, 100 micrograms, listed as Pept-1) was 3 SFU and 2 SFU. The “SFU, IFNγ ELISpot” value (Subject C, 5.0 × 10^5 cells per well, 25 micrograms, listed as Pept-1) was 10 SFU and 5 SFU, the “SFU, IFNγ ELISpot” value (Subject C, 5.0 × 10^5 cells per well, 50 micrograms, listed as Pept-1) was 6 SFU and 5 SFU and the “SFU, IFNγ ELISpot” value (Subject D, 4.0 × 10^5 cells per well, 25 micrograms, listed as Pept-1) was 28 SFU and 32 SFU. The “SFU, IFNγ ELISpot” value (Subject D, 4.0 × 10^5 cells per well, 50 micrograms, listed as Pept-1) was 23 SFU and 31 SFU, the “SFU, IFNγ ELISpot” value (Subject D, 4.0 × 10^5 cells per well, 100 micrograms, listed as Pept-1) was 32 SFU and 25 SFU and the “SFU, IFNγ ELISpot” value (Subject E, 5.0 × 10^5 cells per well, 25 micrograms, listed as Pept-1) was 177 SFU and 139 SFU. For the same sequence, the “SFU, IFNγ ELISpot” value (Subject E, 5.0 × 10^5 cells per well, 50 micrograms, listed as Pept-1) was 160 SFU and 144 SFU, the “SFU, IFNγ ELISpot” value (Subject E, 5.0 × 10^5 cells per well, 100 micrograms, listed as Pept-1) was 139 SFU and 153 SFU and the “SFU, IFNγ ELISpot” value (Subject F, 5.0 × 10^5 cells per well, 25 micrograms, listed as Pept-1) was 151 SFU and 146 SFU. For the same sequence, the “SFU, IFNγ ELISpot” value (Subject F, 5.0 × 10^5 cells per well, 50 micrograms, listed as Pept-1) was 186 SFU and 147 SFU, the “SFU, IFNγ ELISpot” value (Subject F, 5.0 × 10^5 cells per well, 100 micrograms, listed as Pept-1) was 166 SFU and 138 SFU and the “SFU, IFNγ ELISpot” value (Subject G, 4.0 × 10^5 cells per well, 25 micrograms, listed as Pept-1) was 8 SFU and 14 SFU. The “SFU, IFNγ ELISpot” value (Subject G, 4.0 × 10^5 cells per well, 50 micrograms) was 10 SFU, the “SFU, IFNγ ELISpot” value (Subject H, 3.5 × 10^5 cells per well, 25 micrograms, listed as Pept-1) was 14 SFU and 13 SFU and the “SFU, IFNγ ELISpot” value (Subject H, 3.5 × 10^5 cells per well, 50 micrograms) was 8 SFU. The “SFU, IFNγ ELISpot” value (Subject H, 3.5 × 10^5 cells per well, 100 micrograms, listed as Pept-1) was 9 SFU and 8 SFU, the “SFU, IFNγ ELISpot” value (Subject I, 5.0 × 10^5 cells per well, 25 micrograms, listed as Pept-1) was 6 SFU and 7 SFU and the “SFU, IFNγ ELISpot” value (Subject J, 5.0 × 10^5 cells per well, 25 micrograms, listed as Pept-1) was 103 SFU and 109 SFU. For the same sequence, the “SFU, IFNγ ELISpot” value (Subject J, 5.0 × 10^5 cells per well, 50 micrograms, listed as Pept-1) was 107 SFU and 92 SFU, the “SFU, IFNγ ELISpot” value (Subject J, 5.0 × 10^5 cells per well, 100 micrograms, listed as Pept-1) was 109 SFU and 111 SFU and the “SFU, IFNγ ELISpot” value (Subject K, 3.2 × 10^5 cells per well, 25 micrograms, listed as Pept-1) was 33 SFU and 28 SFU. For the same sequence, the “SFU, IFNγ ELISpot” value (Subject K, 3.2 × 10^5 cells per well, 50 micrograms, listed as Pept-1) was 28 SFU and 20 SFU, the “SFU, IFNγ ELISpot” value (Subject K, 3.2 × 10^5 cells per well, 100 micrograms, listed as Pept-1) was 24 SFU and 38 SFU and the “SFU, IFNγ ELISpot” value (Subject L, 3.5 × 10^5 cells per well, 25 micrograms, listed as Pept-1) was 10 SFU and 9 SFU. For the same sequence, the “SFU, IFNγ ELISpot” value (Subject L, 3.5 × 10^5 cells per well, 100 micrograms, listed as Pept-1) was 14 SFU and 7 SFU, the “SFU, IFNγ ELISpot” value (Subject M, 2.3 × 10^5 cells per well, 25 micrograms, listed as Pept-1) was 34 SFU and 18 SFU and the “SFU, IFNγ ELISpot” value (Subject M, 2.3 × 10^5 cells per well, 50 micrograms, listed as Pept-1) was 32 SFU and 30 SFU. The “SFU, IFNγ ELISpot” value (Subject M, 2.3 × 10^5 cells per well, 100 micrograms, listed as Pept-1) was 45 SFU and 40 SFU, the “SFU, IFNγ ELISpot” value (Subject N, 2.4 × 10^5 cells per well, 25 micrograms, listed as Pept-1) was 4 SFU and 6 SFU and the “SFU, IFNγ ELISpot” value (Subject N, 2.4 × 10^5 cells per well, 100 micrograms, listed as Pept-1) was 5 SFU and 3 SFU. The “SFU, IFNγ ELISpot” value (Subject P, 3.0 × 10^5 cells per well, 0.1 micrograms, listed as Pept-1) was 16 SFU and 15 SFU, the “SFU, IFNγ ELISpot” value (Subject P, 3.0 × 10^5 cells per well, 0.5 micrograms, listed as Pept-1) was 21 SFU and 24 SFU and the “SFU, IFNγ ELISpot” value (Subject P, 3.0 × 10^5 cells per well, 1 micrograms, listed as Pept-1) was 49 SFU and 31 SFU. For the same sequence, the “SFU, IFNγ ELISpot” value (Subject P, 3.0 × 10^5 cells per well, 2.5 micrograms, listed as Pept-1) was 45 SFU, the “SFU, IFNγ ELISpot” value (Subject Q, 3.0 × 10^5 cells per well, 0.1 micrograms, listed as Pept-1) was 12 SFU and 18 SFU and the “SFU, IFNγ ELISpot” value (Subject Q, 3.0 × 10^5 cells per well, 0.5 micrograms, listed as Pept-1) was 34 SFU and 32 SFU. The “SFU, IFNγ ELISpot” value (Subject Q, 3.0 × 10^5 cells per well, 1 micrograms, listed as Pept-1) was 45 SFU and 36 SFU, the “SFU, IFNγ ELISpot” value (Subject R, 3.0 × 10^5 cells per well, 0.1 micrograms, listed as Pept-1) was 12 SFU and 16 SFU and the “SFU, IFNγ ELISpot” value (Subject R, 3.0 × 10^5 cells per well, 0.5 micrograms, listed as Pept-1) was 21 SFU and 26 SFU. The “SFU, IFNγ ELISpot” value (Subject R, 3.0 × 10^5 cells per well, 1 micrograms, listed as Pept-1) was 22 SFU and 21 SFU, the “SFU, IFNγ ELISpot” value (Subject S, 3.0 × 10^5 cells per well, 0.1 micrograms, listed as Pept-1) was 2 SFU and 4 SFU and the “SFU, IFNγ ELISpot” value (Subject S, 3.0 × 10^5 cells per well, 0.5 micrograms, listed as Pept-1) was 1 SFU and 2 SFU. For the same sequence, the “SFU, IFNγ ELISpot” value (Subject S, 3.0 × 10^5 cells per well, 1 micrograms, listed as Pept-1) was 1 SFU and 2 SFU, the “SFU, IFNγ ELISpot” value (Subject T, 3.0 × 10^5 cells per well, 0.1 micrograms, listed as Pept-1) was 20 SFU and 18 SFU and the “SFU, IFNγ ELISpot” value (Subject T, 3.0 × 10^5 cells per well, 0.5 micrograms, listed as Pept-1) was 34 SFU and 31 SFU. The “SFU, IFNγ ELISpot” value (Subject T, 3.0 × 10^5 cells per well, 1 micrograms, listed as Pept-1) was 55 SFU and 60 SFU, the “SFU, IFNγ ELISpot” value (Subject U, 3.0 × 10^5 cells per well, 0.1 micrograms, listed as Pept-1) was 6 SFU and 7 SFU and the “SFU, IFNγ ELISpot” value (Subject U, 3.0 × 10^5 cells per well, 0.5 micrograms, listed as Pept-1) was 18 SFU and 20 SFU. The “SFU, IFNγ ELISpot” value (Subject U, 3.0 × 10^5 cells per well, 1 micrograms, listed as Pept-1) was 33 SFU and 24 SFU and the “T cell response in PBMC samples from children after gluten challenge” value (general increase in SFU in each child, Tables 2-5) was “induce a T cell response”.
